Source: ChEMBL document CHEMBL2331144, “Synthesis and anticancer activity of analogues of phenstatin, with a phenothiazine A-ring, as a new class of microtubule-targeting agents” (Bioorg Med Chem Lett, 2013)

Tests used:
KM12 = assay: Growth inhibition of human KM12 cells after 48 hrs by sulforhodamine B assay; assay type: functional; conditions: KM12, 48 h
786-0 = assay: Growth inhibition of human 786-0 cells after 48 hrs by sulforhodamine B assay; assay type: functional; conditions: 786-0, 48 h
PC-3 = assay: Growth inhibition of human PC3 cells after 48 hrs by sulforhodamine B assay; assay type: functional; conditions: PC-3, 48 h
TK-10 = assay: Growth inhibition of human TK10 cells after 48 hrs by sulforhodamine B assay; assay type: functional; conditions: TK-10, 48 h
SNB-75 = assay: Growth inhibition of human SNB75 cells after 48 hrs by sulforhodamine B assay; assay type: functional; conditions: SNB-75, 48 h
MOLT-4 = assay: Growth inhibition of human MOLT4 cells after 48 hrs by sulforhodamine B assay; assay type: functional; conditions: MOLT-4, 48 h
BT-549 = assay: Growth inhibition of human BT549 cells after 48 hrs by sulforhodamine B assay; assay type: functional; conditions: BT-549, 48 h
UACC-62 = assay: Growth inhibition of human UACC62 cells after 48 hrs by sulforhodamine B assay; assay type: functional; conditions: UACC-62, 48 h
NCI-H460 = assay: Growth inhibition of human NCI-H460 cells after 48 hrs by sulforhodamine B assay; assay type: functional; conditions: NCI-H460, 48 h
MCF7 = assay: Growth inhibition of human MCF7 cells after 48 hrs by sulforhodamine B assay; assay type: functional; conditions: MCF7, 48 h
HOP-62 = assay: Growth inhibition of human HOP62 cells after 48 hrs by sulforhodamine B assay; assay type: functional; conditions: HOP-62, 48 h
MDA-MB-435 = assay: Growth inhibition of human MDA-MB-435 cells after 48 hrs by sulforhodamine B assay; assay type: functional; conditions: MDA-MB-435, 48 h
COLO 205 = assay: Growth inhibition of human COLO205 cells after 48 hrs by sulforhodamine B assay; assay type: functional; conditions: COLO 205, 48 h
NCI-H522 = assay: Growth inhibition of human NCI-H522 cells after 48 hrs by sulforhodamine B assay; assay type: functional; conditions: NCI-H522, 48 h
OVCAR-8 = assay: Growth inhibition of human OVCAR8 cells after 48 hrs by sulforhodamine B assay; assay type: functional; conditions: OVCAR-8, 48 h
OVCAR-3 = assay: Growth inhibition of human OVCAR3 cells after 48 hrs by sulforhodamine B assay; assay type: functional; conditions: OVCAR-3, 48 h
Malme-3M = assay: Growth inhibition of human MALME-3M cells after 48 hrs by sulforhodamine B assay; assay type: functional
HCT-15 = assay: Growth inhibition of human HCT15 cells after 48 hrs by sulforhodamine B assay; assay type: functional; conditions: HCT-15, 48 h
OVCAR-4 = assay: Growth inhibition of human OVCAR4 cells after 48 hrs by sulforhodamine B assay; assay type: functional; conditions: OVCAR-4, 48 h
SR = assay: Growth inhibition of human SR cells after 48 hrs by sulforhodamine B assay; assay type: functional
OVCAR-5 = assay: Growth inhibition of human OVCAR5 cells after 48 hrs by sulforhodamine B assay; assay type: functional; conditions: OVCAR-5, 48 h
UO-31 = assay: Growth inhibition of human UO31 cells after 48 hrs by sulforhodamine B assay; assay type: functional; conditions: UO-31, 48 h
K562 = assay: Growth inhibition of human K562 cells after 48 hrs by sulforhodamine B assay; assay type: functional; conditions: K562, 48 h
[1] = Growth inhibition of human Hs 578T cells after 48 hrs by sulforhodamine B assay; assay type: functional
T47D = assay: Growth inhibition of human T47D cells after 48 hrs by sulforhodamine B assay; assay type: functional
Ovis aries = organism: Ovis aries; assay: Inhibition of sheep brain tubulin polymerization at 100 uM using DAPI by fluorimetry
UACC-257 = assay: Growth inhibition of human UACC257 cells after 48 hrs by sulforhodamine B assay; assay type: functional; conditions: UACC-257, 48 h
SF-539 = assay: Growth inhibition of human SF539 cells after 48 hrs by sulforhodamine B assay; assay type: functional; conditions: SF-539, 48 h
SN12C = assay: Growth inhibition of human SN12C cells after 48 hrs by sulforhodamine B assay; assay type: functional
IGROV-1 = assay: Growth inhibition of human IGROV1 cells after 48 hrs by sulforhodamine B assay; assay type: functional; conditions: IGROV-1, 48 h
A549 = assay: Growth inhibition of human A549/ATCC cells after 48 hrs by sulforhodamine B assay; assay type: functional; conditions: A549, 48 h
RXF 393 = assay: Growth inhibition of human RXF393 cells after 48 hrs by sulforhodamine B assay; assay type: functional; conditions: RXF 393, 48 h
ACHN = assay: Growth inhibition of human ACHN cells after 48 hrs by sulforhodamine B assay; assay type: functional
LOX IMVI = assay: Growth inhibition of human LOXIMVI cells after 48 hrs by sulforhodamine B assay; assay type: functional
MDA-MB-468 = assay: Growth inhibition of human MDA-MB-468 cells after 48 hrs by sulforhodamine B assay; assay type: functional; conditions: MDA-MB-468, 48 h
SK-OV-3 = assay: Growth inhibition of human SKOV3 cells after 48 hrs by sulforhodamine B assay; assay type: functional; conditions: SK-OV-3, 48 h
MDA-MB-231 = assay: Growth inhibition of human MDA-MB-231 cells after 48 hrs by sulforhodamine B assay; assay type: functional; conditions: MDA-MB-231, 48 h
SF-295 = assay: Growth inhibition of human SF295 cells after 48 hrs by sulforhodamine B assay; assay type: functional; conditions: SF-295, 48 h
HOP-92 = assay: Growth inhibition of human HOP92 cells after 48 hrs by sulforhodamine B assay; assay type: functional; conditions: HOP-92, 48 h
SW-620 = assay: Growth inhibition of human SW620 cells after 48 hrs by sulforhodamine B assay; assay type: functional; conditions: SW-620, 48 h
DU-145 = assay: Growth inhibition of human DU145 cells after 48 hrs by sulforhodamine B assay; assay type: functional; conditions: DU-145, 48 h
RPMI-8226 = assay: Growth inhibition of human RPMI8226 cells after 48 hrs by sulforhodamine B assay; assay type: functional; conditions: RPMI-8226, 48 h
HT-29 = assay: Growth inhibition of human HT-29 cells after 48 hrs by sulforhodamine B assay; assay type: functional; conditions: HT-29, 48 h
SK-MEL-2 = assay: Growth inhibition of human SK-MEL-2 cells after 48 hrs by sulforhodamine B assay; assay type: functional; conditions: SK-MEL-2, 48 h
CAKI-1 = assay: Growth inhibition of human CAKI-1 cells after 48 hrs by sulforhodamine B assay; assay type: functional; conditions: CAKI-1, 48 h
HCT-116 = assay: Growth inhibition of human HCT116 cells after 48 hrs by sulforhodamine B assay; assay type: functional; conditions: HCT-116, 48 h
SK-MEL-28 = assay: Growth inhibition of human SK-MEL-28 cells after 48 hrs by sulforhodamine B assay; assay type: functional; conditions: SK-MEL-28, 48 h
[2] = Growth inhibition of human HCC2998 cells after 48 hrs by sulforhodamine B assay; assay type: functional; conditions: HCC 2998, 48 h
[3] = Growth inhibition of human NCI-ADR-RES cells after 48 hrs by sulforhodamine B assay; assay type: functional
A498 = assay: Growth inhibition of human A498 cells after 48 hrs by sulforhodamine B assay; assay type: functional; conditions: A498, 48 h
CCRF-CEM = assay: Growth inhibition of human CCRF-CEM cells after 48 hrs by sulforhodamine B assay; assay type: functional
SK-MEL-5 = assay: Growth inhibition of human SK-MEL-5 cells after 48 hrs by sulforhodamine B assay; assay type: functional; conditions: SK-MEL-5, 48 h
SF-268 = assay: Growth inhibition of human SF268 cells after 48 hrs by sulforhodamine B assay; assay type: functional; conditions: SF-268, 48 h
M14 = assay: Growth inhibition of human M14 cells after 48 hrs by sulforhodamine B assay; assay type: functional; conditions: M14, 48 h
HL-60(TB) = assay: Growth inhibition of human HL-60(TB) cells after 48 hrs by sulforhodamine B assay; assay type: functional; conditions: HL-60, 48 h
NCI-H23 = assay: Growth inhibition of human NCI-H23 cells after 48 hrs by sulforhodamine B assay; assay type: functional; conditions: NCI-H23, 48 h
[4] = Inhibition of sheep brain tubulin polymerization using DAPI by fluorimetry; set-up: species or system Ovis aries

**Q.** Which results are given for `CCOc1ccc(C(=O)N2c3ccccc3Sc3ccccc32)cc1Cl`?
**A.** GI50 (KM12): 426 nM; GI50 (786-0): 481 nM; GI50 (PC-3): 390 nM; GI50 (TK-10): 857 nM; GI50 (SNB-75): 283 nM; GI50 (MOLT-4): 408 nM; GI50 (BT-549): 613 nM; GI50 (UACC-62): 451 nM; GI50 (NCI-H460): 368 nM; GI50 (MCF7): 419 nM; GI50 (HOP-62): 512 nM; GI50 (MDA-MB-435): 95 nM; GI50 (COLO 205): 354 nM; GI50 (NCI-H522): 221 nM; GI50 (OVCAR-8): 596 nM; GI50 (OVCAR-3): 231 nM; GI50 (Malme-3M): 446 nM; GI50 (HCT-15): 373 nM; GI50 (OVCAR-4): 3750 nM; GI50 (SR): 142 nM; GI50 (OVCAR-5): 527 nM; GI50 (UO-31): 520 nM; GI50 (K562): 277 nM; GI50 [1]: 573 nM; GI50 (T47D): 466 nM; inhibition (Ovis aries): 48%; GI50 (UACC-257): 564 nM; GI50 (SF-539): 239 nM; GI50 (SN12C): 777 nM; GI50 (IGROV-1): 1020 nM; GI50 (A549): 620 nM; GI50 (RXF 393): 236 nM; GI50 (ACHN): 447 nM; GI50 (LOX IMVI): 750 nM; GI50 (MDA-MB-468): 257 nM; GI50 (SK-OV-3): 623 nM; GI50 (MDA-MB-231): 531 nM; GI50 (SF-295): 254 nM; GI50 (HOP-92): 272 nM; GI50 (SW-620): 349 nM; GI50 (DU-145): 476 nM; GI50 (RPMI-8226): 424 nM; GI50 (HT-29): 320 nM; GI50 (SK-MEL-2): 395 nM; GI50 (CAKI-1): 457 nM; GI50 (HCT-116): 457 nM; GI50 (SK-MEL-28): 817 nM; GI50 [2]: 2700 nM; GI50 [3]: 376 nM; GI50 (A498): 210 nM; GI50 (CCRF-CEM): 361 nM; GI50 (SK-MEL-5): 333 nM; GI50 (SF-268): 1760 nM; GI50 (M14): 373 nM; GI50 (HL-60(TB)): 315 nM; GI50 (NCI-H23): 999 nM

**Q.** For `COc1cc([C@@H]2c3cc4c(cc3C[C@H]3COC(=O)[C@@H]32)OCO4)cc(OC)c1OC` [DESOXYPODOPHYLLOTOXIN], which IC50 [4] is on record?
**A.** 1760 nM

**Q.** And the inhibition (Ovis aries)?
**A.** 100%
